The values below are quoted from earlier work in PMC11133798, “Vosoritide treatment for children with hypochondroplasia: a phase 2 trial” (eClinicalMedicine, 2024).

No end group written: not given here. A value given as a limit tells only on which side of the number the result lay.

Data set [1] has as its system rat chondrosarcoma cell lines, NPR2 heterozygous knock out. The following applies: ref 23 (protocol list); cited from earlier work. The text has this: (§1) Our group identified pathogenic mutations in NPR2 in ~2% of ~400 patients presenting with short stature 22. The degree of short stature ...
In data set [2] the test system is rat chondrosarcoma cell lines, NPR2 homozygous knock out. The following applies: ref 23 (protocol list); cited from earlier work.
Text: as §1

Data set [3] relates to mouse model with Braf mutation (p.Q241R). The following applies: CNP administration; ref 28 (protocol list); cited from earlier work.
For data set [4], the system named is mice deficient in Nf1 in type II collagen producing cells. The following applies: daily injections of CNP; ref 27 (protocol list); cited from earlier work.
The next data set has as its system rat chondrosarcoma cells. The following applies: CNP treatment; ref 36 (protocol list); cited from earlier work. The source says:
Individuals with heterozygous defects in Aggrecan present with dominantly inherited short stature often with advanced bone ages and premature growth cessation 32,33.

For a further data set, the system named is L613V/+ mice. The following applies: by 2 weeks of treatment; catch up began after 1 week; ref 26 (protocol list); cited from earlier work. The source says:
They then proceeded to give these mice a MEK inhibitor.

Data set [5] has as its system children with hypochondroplasia. To be noted: cited from earlier work. The source says: As there are no currently approved medications for hypochondroplasia, recombinant human growth hormone (rhGH) has been used off-label in patients with hypochondroplasia with variable efficacy. To date, there are no controlled trials of rhGH in children with hypochondroplasia. […] However, growth velocity slowed substantially after the first year resulting in a total increase in height ...

Where [6] appears, read: meta-analysis of 7 studies, 113 children with hypochondroplasia.

For “CNP: endogenous C-type natriuretic peptide, ligand of NPR-B (GLSKGCFGLKLDRIGSMSGLGC; ends and bridges not checked; cysteine pairing not given here; UniProt P23582 105-126, looked up)”, in data set [1], the “CNP concentration generating cGMP sufficient to activate downstream protein kinase G signaling” value was greater than 0.163 nM. In addition, the “cGMP response to CNP” value in data set [2] is listed as “absolutely no”. For the same compound, the Body length entry in data set [3] is “increases in body length”. Besides, the “ERK phosphorylation and stature” value in data set [4] is “decreased ERK phosphorylation and corrected the short stature”. In the data set on rat chondrosarcoma cells, the “Extracellular matrix after FGF2 administration” value is reported as “rescue the loss of extracellular matrix”.

As for `O=C(NOC[C@H](O)CO)c1ccc(F)c(F)c1Nc1ccc(I)cc1F` [PD0325901], the Body length result in the data set on L613V/+ mice was “the same length as untreated WT mice”.

For “rhGH: recombinant human growth hormone used off-label in hypochondroplasia”, the Body disproportion result in data set [5] (higher dose of rhGH, after three years of treatment) is recorded as “significant worsening of body disproportion”. In data set [5] (setting [6]), the “Mean first year increase in height SDS” value is 0.41 SD and the “Total increase in height after 3 years” value was 0.61 SD.
